What was measured:
human URAT1 h-M29L = molecular target: T1, human URAT1 h-M29L (Homo sapiens, UniProt Q96S37, M29L); assay: URAT1 activity assay, h-M29L; type: cell-based; settings: TM1 point mutant, read-out: Verinurad affinity (IC50)
T1 construct: expressed in transfected cells; host or cells: HEK-293T
Excerpt: Human URAT1 (GenBank BC053348.1, Homo sapiens SLC22A12), rat URAT1 (NCBI NM_001034943.1, Rattus norvegicus Slc22a12) and human OAT4 (NCBI NM_018484.2, Homo sapiens SLC22A11) genes were purchased from Origene Technologies, Inc. and subcloned into pCMV6/neo using NotI. Where indicated, controls transfections used pCMV6/neo. Mutants were produced by site-directed mutagenesis using the QuikChange Lightning Multi Site-Directed Mutagenesis Kit (Agilent Technologies). […] Mutagenic primer sequences are provided in ref. [15] and mutagenic primer sequences for previously unreported mutants shown in Supplementary Table 1. All constructs used in this study were untagged. Human OAT1 was purchased from Fisher Scientific (catalog # MHS1010–7508183 in pSPORT6, NCBI NM_153276.2, Homo sapiens SLC22A6).
HEK-293T cells were maintained in DMEM/high glucose/L-glutamine/HEPES supplemented with 1 mM sodium pyruvate (Life Technologies) and 10% FBS (PAA Laboratories) at 37 °C in 5% CO2. […]
URAT1 and OAT4 activity assays were performed in assay buffer consisting of 25 mM MES pH 5.5 (from a 1 M MES solution [Sigma] adjusted to pH 5.5 with sodium hydroxide), 125 mM sodium gluconate, 4.8 mM potassium gluconate, 1.2 mM monobasic potassium phosphate, 1.2 mM magnesium sulfate, 1.3 mM calcium gluconate and 5.6 mM glucose. […] Each treatment was measured in triplicate.

human OAT1 = molecular target: T2, human OAT1 (Homo sapiens, UniProt Q4U2R8); assay: OAT1 activity assay (carboxyfluorescein transport); type: cell-based
T2 construct: host or cells: HEK-293T
T2 sequence (Q4U2R8 1-550 isoform Q4U2R8-2): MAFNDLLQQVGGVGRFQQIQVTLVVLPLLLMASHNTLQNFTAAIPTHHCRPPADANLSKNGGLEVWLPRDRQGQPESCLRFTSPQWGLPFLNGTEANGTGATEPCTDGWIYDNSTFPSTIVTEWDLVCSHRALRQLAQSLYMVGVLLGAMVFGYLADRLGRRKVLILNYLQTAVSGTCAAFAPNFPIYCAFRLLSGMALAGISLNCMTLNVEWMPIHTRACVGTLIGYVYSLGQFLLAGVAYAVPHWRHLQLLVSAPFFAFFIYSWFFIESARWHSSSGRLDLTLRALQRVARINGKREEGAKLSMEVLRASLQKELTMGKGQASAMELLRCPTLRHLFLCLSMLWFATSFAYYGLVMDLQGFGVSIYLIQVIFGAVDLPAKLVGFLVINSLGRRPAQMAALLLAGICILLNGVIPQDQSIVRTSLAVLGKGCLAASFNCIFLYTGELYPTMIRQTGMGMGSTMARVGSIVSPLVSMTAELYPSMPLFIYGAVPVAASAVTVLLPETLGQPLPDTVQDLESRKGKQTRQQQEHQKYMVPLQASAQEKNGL
Protocol: DNA (10 μg) was mixed with 30 μl of […] Gold (Boca Scientific) in 2 ml OptiMem (Life Technologies). […] The cells were assayed the following day. OAT1-expressing cells were assayed in a buffer containing 20 mM HEPES (from a 1 M solution at pH 7.3; USB Corporation), 130 mM sodium chloride, 4 mM potassium chloride, 1 mM magnesium sulfate, 1 mM calcium chloride, 1 mM sodium phosphate dibasic and 18 mM glucose. […] Cells were then solubilized in 0.1 N sodium hydroxide prior to fluorimetry measurements. Each treatment was measured in triplicate.

T1 sequence (Q96S37 whole entry M29L): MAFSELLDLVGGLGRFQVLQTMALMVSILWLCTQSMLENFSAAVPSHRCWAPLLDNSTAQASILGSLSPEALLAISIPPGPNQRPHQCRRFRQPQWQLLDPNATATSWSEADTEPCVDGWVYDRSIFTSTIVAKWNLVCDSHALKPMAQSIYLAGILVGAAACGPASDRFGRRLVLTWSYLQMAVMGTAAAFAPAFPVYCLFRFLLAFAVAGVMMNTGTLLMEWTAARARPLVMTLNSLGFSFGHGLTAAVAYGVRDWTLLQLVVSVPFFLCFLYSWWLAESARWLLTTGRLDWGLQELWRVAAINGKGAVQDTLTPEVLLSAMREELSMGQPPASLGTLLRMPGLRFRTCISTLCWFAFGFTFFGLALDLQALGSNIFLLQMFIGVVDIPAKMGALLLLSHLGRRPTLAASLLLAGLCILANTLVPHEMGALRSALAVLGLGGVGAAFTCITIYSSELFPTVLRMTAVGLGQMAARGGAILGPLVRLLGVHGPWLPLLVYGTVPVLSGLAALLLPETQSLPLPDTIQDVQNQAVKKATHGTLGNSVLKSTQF

- IC50 (human URAT1 h-M29L): 11 ± 2.9 nM
- IC50 (human OAT1; human OAT1 in HEK-293T, 20 µM carboxyfluorescein, read-out: IC50, inhibition of transport activity): 4600 ± 1400 nM
- fold lower affinity compared to URAT1 (human OAT1; human OAT1 vs human URAT1): approximately 200 fold
Structure (SMILES): CC(C)(Sc1ccncc1-c1ccc(C#N)c2ccccc12)C(=O)O [Verinurad, 2-((3-(4-cyanonaphthalen-1-yl)pyrindin-4-yl)thio)-2-methylpropanoic acid]
